# Measured values published in article PMC11071266, “The putative proton-coupled organic cation antiporter is involved in uptake of triptans into human brain capillary endothelial cells” (Fluids and Barriers of the CNS, 2024).
# “And” between values parts separate entries of the source, which are not always exact repeats. Equal values may be shown once. “Also recorded” adds a separate entry of the source. Read-outs that look alike come from different tables or passages of the source.
# Tests used:
# [1] = test system: H^+/OC antiporter; experiment: Cellular uptake into hCMEC/D3 cells in absence or presence of pyrilamine or oxycodone; format: cell-based, human; details: for Inhibition by oxycodone (of the compound's uptake) / Inhibition by pyrilamine (of the compound's uptake): triptan 50 µM, asterisks = P level; for Inhibition by oxycodone (of the compound's uptake): 500 µM oxycodone; for Inhibition by pyrilamine (of the compound's uptake): 500 µM pyrilamine
# Protocol: (§1) The cells were equilibrated in hHBSS with or without inhibitor for 15 min (37 °C, 90 rpm). The compound of interest was spiked into the hHBSS followed by incubation for a designated time. The timeframe of the initial uptake rate was validated into hCMEC/D3 cells (Fig. 1 and Additional file 1). The experiment was terminated by washing three times with ice-cold HBSS supplemented with 0.0375% (v/v) sodium bicarbonate.
# The hCMEC/D3 cells were used for time-dependent uptake studies between passage 3–5 (pyrilamine), 7–9 (oxycodone), 6–8 (almotriptan), and 24–31 (eletriptan).
# The hCMEC/D3 cells were used for uptake studies of almotriptan, eletriptan, and sumatriptan in the presence of pyrilamine and oxycodone between passage 21–23.
# (§2) The cells were permeabilized using 50% (v/v) acetonitrile (HPLC LC–MS grade, VWR International S.A.S, Soeborg, Denmark) in ultrapure water (ELGA, Buckinghamshire, England) for 10 min at room temperature. Thereafter, the cells were scraped off the bottom of the wells and transferred to HPLC vials. Samples from bidirectional transport experiments were transferred directly into HPLC vials. All samples were stored at – 18 °C for later analysis. Calibration curves with standards in the range of 1 or 5–1000 ng/mL were dissolved in 50% (v/v) acetonitrile in ultrapure water (ELGA, Buckinghamshire, England), or in hHBSS(-) for analysis of bidirectional transport samples.
# (§3) Liquid chromatography tandem mass spectrometry (LC–MS/MS) were performed using electrospray ionization in positive mode on a micromass Quattro micro™ API tandem quadrupole mass spectrometer (Waters, MA, USA) or an Ultivo triple quadrupole mass spectrometer (Agilent Technologies, CA, USA) coupled to Agilent HPLC system 1100 Series or 1260 Series (Agilent Technologies, CA, USA California), respectively. Applied columns were an InfinityLab Poroshell 120 EC-C18 (3.0 × 50 mm; 2.7 micron, Agilent Technologies, CA, USA) or a Kinetex 2.6 μm XB-C18 (100 Å, 100 × 4.6 mm, Phenomenex Inc., CA, USA). An overview of applied HPLC and MS/MS parameters can be found in Additional file 2 and Additional file 3, respectively. The data acquisition software was MassLynx (V4.1, Waters, MA, USA).
# [2] = cited from earlier work; for Strongest basic pKa: extracted from DrugBank
# [3] = Physicochemical properties extracted from databases
# Description: Triptans are a relatively homogeneous group of drug compounds with similar physicochemical properties, including molecular weights < 400 g/mol and a low to moderate lipophilicity (cLogD values ranging from − 2.1–0.18). […] As a consequence, it is unlikely that triptans cross the brain microvascular endothelium through passive diffusion to a clinically relevant extent. Table 1 summarizes structures and physicochemical properties of the triptans, as well as oxycodone and pyrilamine, which are two prototypical H^+/OC antiporter substrates included in this study.
# [4] = test system: H^+/OC antiporter; experiment: Concentration-dependent cellular uptake into hCMEC/D3 cells (Michaelis-Menten kinetics); format: cell-based, human; details: for Concentration-dependent uptake (saturability): hCMEC/D3 cells, tested concentration range; for Association with H^+/OC antiporter: summary of uptake and inhibition studies in hCMEC/D3 cells; for Apparent Km / Jmax / Km: uptake into hCMEC/D3 cells; for Km: read-out: Apparent Km
# Protocol: (§4) The immortalized human cerebral microvascular endothelial cell line (hCMEC/D3) was maintained in T75-flasks coated with collagen type I from calf skin (C9791, 18.7 μg/mL) and cultured in EBM®-2 medium (Lonza, Basel, Schweiz) supplemented with 5% (v/v) fetal bovine serum (FBS, 10270, Life Technologies, CA, USA or SH3008803, ThermoFisher Scientific, MA, USA), 100 U/mL penicillin and 100 μg/ml streptomycin, 1 ng/mL human basic fibroblast growth factor (bFGF), 1.4 μM hydrocortisone, 1% (v/v) chemically defined lipid concentrate (ThermoFisher Scientific, MA, USA), 10 mM N-2-hydroxyethylpiperazine-N-2-ethane sulfonic acid (HEPES) and 5 μg/mL ascorbic acid (5% CO2, 37 °C). […] For experiments, cells were seeded into 24-well plates (6.7·10^4 cells/cm^2) and cultured for four continuous days. The cells were used for experiments between passage 3–31.
# as §1
# To assess the concentration-dependent uptake, the uptake flux was fitted to the Michaelis–Menten equation, Eq. 1.1 Jss=Jmax[S]/Km+[S] where Jss represents flux under steady state, Jmax is the maximal flux, [S] is the substrate concentration, and Km is the Michaelis–Menten constant.
# The hCMEC/D3 cells were used for concentration-dependent uptake studies between passage 21–23 (pyrilamine), 11–13 (oxycodone), 12–14 (almotriptan), 16–18 (eletriptan), and 12–14 (sumatriptan).
# as §2, §3
# The protein content of hCMEC/D3 cells was determined for normalization purposes. Cells were washed with ice-cold phosphate buffered saline following cell lysis in cell extraction buffer (FNN0011, Thermo Fisher Scientific, MA, USA) supplemented with 1 × cOmplete™ Protease Inhibitor Cocktail (04693116001, Roche, Basel, Schweiz), 1 mM phenylmethylsulfonyl fluoride, and […] for 30 min on ice.
# [5] = test system: H^+/OC antiporter; experiment: Cellular uptake into hCMEC/D3 cells after intra- and extracellular pH manipulation; format: cell-based, human; details: for Cellular uptake after intracellular alkalization: acute exposure to 30 mM NH4Cl vs control pH 7.4; for Cellular uptake at extracellular acidification: extracellular pH 6.8 vs pH 7.4; for Cellular uptake at extracellular alkalization: extracellular pH 8.2 vs pH 7.4; for Proton-gradient dependence of uptake: hCMEC/D3 cells; for Cellular uptake after intracellular acidification: preexposure to 30 mM NH4Cl followed by media change vs control
# [6] = test system: H^+/OC antiporter; experiment: Inhibition of [^3H]-pyrilamine uptake into hCMEC/D3 cells; format: cell-based, human
# Protocol: as §4, §1
# The inhibitory constant at 50% inhibition (IC50) was determined by fitting the uptake flux (Jss) as function of the logarithmic inhibitor concentration to Eq. 2.2 Jss=Jmin+(Jmax-Jmin)/1+10^logIC50-InH where [I] is the inhibitor concentration, nH is the Hill coefficient.
# The hCMEC/D3 cells were used for [^3H]-pyrilamine inhibition studies between passage 3–6 (pyrilamine, oxycodone), 16–18 (almotriptan), 7–13 (eletriptan), 25–27 (frovatriptan), 3–8 (naratriptan), 16–18 (rizatriptan), 12–14 (sumatriptan), and 14–16 (zolmitriptan).
# The cells were permeabilized using 0.1% (v/v) Triton X-100 in ultrapure water (ELGA, Buckinghamshire, England) for 10 min at room temperature. Thereafter, the cells were scraped off the bottom of the wells, transferred to scintillation vials, and mixed with 2 mL of Ultima Gold 241 TM (Perkin Elmer, MA, USA). The samples were analyzed using a Tri-Carb 2910 TR Liquid Scintillation Analyzer (Perkin Elmer, MA, USA).
# [7] = test system: H^+/OC antiporter; set-up: method as in PMID 35955563; details: trans-stimulation in hCMEC/D3 cells; cited from earlier work
# [8] = test system: organic cation transporter 1 (OCT1); set-up: method as in PMID 35955563; details: cited from earlier work
# [9] = test system: P-gp; set-up: method as in PMID 12814962; details: brain Kp in wild type and mdr1a knockout mice; cited from earlier work
# [10] = [^3H]-pyrilamine 1 µCi/mL, 48 nM, read-out: Apparent IC50 on [^3H]-pyrilamine uptake
# [11] = read-out: Apparent IC50 on [^3H]-pyrilamine uptake, [^3H]-pyrilamine 1 µCi/mL, 48 nM
compound,measurement,setting,value
CN(C)CCc1c[nH]c2ccc(CS(=O)(=O)N3CCCC3)cc12 [Almotriptan],Inhibition by oxycodone (of the compound's uptake),[1],no
same,Inhibition by oxycodone (of the compound's uptake),[1]; listed as almotriptan,did not inhibit
same,Inhibition by pyrilamine (of the compound's uptake),[1],slightly inhibited; also recorded: yes (*)
same,Strongest basic pKa,[2],9.6
same,cLogD pH 7.4,[2]; extracted from ChemSpider,0.3
same,Overall charge pH 7.4,[3],Positive
same,Concentration-dependent uptake (saturability),[4],did not show saturable uptake
same,Association with H^+/OC antiporter,[4],(substrate) decent inhibitor
same,Apparent Km,[4],not saturable (in tested range)
same,Cellular uptake after intracellular alkalization,[5],decreased
same,Cellular uptake at extracellular acidification,[5],reduced
same,Cellular uptake at extracellular alkalization,[5],increased
same,Proton-gradient dependence of uptake,[5],yes
same,Cellular uptake after intracellular acidification,[5],statistically significant increase
same,IC50,[6]; [10],~305 µM and 305 µM
CN[C@@H]1CCc2[nH]c3ccc(C(N)=O)cc3c2C1 [Frovatriptan],cLogD pH 7.4,[2],− 1.5
same,Overall charge pH 7.4,[3],Positive
same,H^+/OC antiporter substrate,[7],did not appear to be H^+/OC antiporter substrate candidates
same,OCT1 substrate,[8],substrates of OCT1
same,Apparent IC50 on [^3H]-pyrilamine uptake,"[6]; [^3H]-pyrilamine 1 µCi/mL, 48 nM",did not exhibit sufficient inhibition
CNS(=O)(=O)CCc1ccc2[nH]cc(C3CCN(C)CC3)c2c1 [Naratriptan],Strongest basic pKa,[2],9.2
same,Overall charge pH 7.4,[3],Positive
same,IC50,[6]; [10],460 ± 41 µM
same,P-gp substrate,[9],substrates of P-gp
COc1ccc2c3c1O[C@H]1C(=O)CC[C@@]4(O)[C@@H](C2)N(C)CC[C@]314 [Oxycodone],Time-dependent uptake in presence of 1000 µM pyrilamine,[1]; oxycodone 500 µM,reduced
same,Strongest basic pKa,[2],8.8
same,cLogD pH 7.4,[2]; extracted from ChemSpider,0.5
same,Overall charge pH 7.4,[3],Positive
same,Jmax,[4],5.3 ± 1.0 nmol·min^−1·mg protein^−1
same,Km,[4]; listed as oxycodone,~130 µM
same,Km,[4],130 ± 57 µM
same,Cellular uptake after intracellular alkalization,[5],reduced cellular uptake
same,Cellular uptake at extracellular acidification,[5],reduced cellular uptake
same,Cellular uptake at extracellular alkalization,[5],increased cellular uptake
same,Cellular uptake after intracellular acidification,[5],increased cellular uptake
same,IC50,[6]; [11],225 ± 57 µM
same,IC50,"[6]; read-out: Apparent IC50 on [^3H]-pyrilamine uptake, [^3H]-pyrilamine 1 µCi/mL, 48 nM, listed as oxycodone",~225 µM
COc1ccc(CN(CCN(C)C)c2ccccn2)cc1 [Pyrilamine],Time-dependent uptake in presence of 500 µM oxycodone,[1]; [^3H]-pyrilamine 48 nM,reduced
same,cLogD pH 7.4,[2],1.1
same,Overall charge pH 7.4,[3],Positive
same,Jmax,[4],5.1 ± 0.7 nmol·min^−1·mg protein^−1
same,Km,[4]; listed as pyrilamine,~93 µM
same,Km,[4],93 ± 17 µM
same,Cellular uptake after intracellular alkalization,[5],reduced cellular uptake
same,Cellular uptake at extracellular acidification,[5],reduced cellular uptake
same,Cellular uptake at extracellular alkalization,[5],increased cellular uptake
same,Cellular uptake after intracellular acidification,[5],increased cellular uptake
same,IC50,"[6]; [^3H]-pyrilamine 1 µCi/mL, 48 nM, listed as pyrilamine, read-out: Apparent IC50 on [^3H]-pyrilamine uptake",~11 µM
same,IC50,[6]; [10],11 ± 6 µM
CN(C)CCc1c[nH]c2ccc(Cn3cncn3)cc12 [Rizatriptan],cLogD pH 7.4,[2],0.04
same,Overall charge pH 7.4,[3],Positive
same,IC50,[6]; [10],719 ± 243 µM
same,P-gp substrate,[9],substrates of P-gp
CNS(=O)(=O)Cc1ccc2[nH]cc(CCN(C)C)c2c1 [Sumatriptan],Inhibition by oxycodone (of the compound's uptake),[1],yes (***)
same,Inhibition by oxycodone (of the compound's uptake),[1]; listed as sumatriptan,inhibited the uptake of sumatriptan
same,Inhibition by pyrilamine (of the compound's uptake),[1],yes (**)
same,Inhibition by pyrilamine (of the compound's uptake),[1]; listed as sumatriptan,inhibited the uptake of sumatriptan
same,Overall charge pH 7.4,[3],Positive
same,Concentration-dependent uptake (saturability),[4],linear increase as function of increasing concentrations
same,Association with H^+/OC antiporter,[4],(substrate) very poor inhibitor
same,Apparent Km,[4],not saturable (in tested range)
same,Cellular uptake after intracellular alkalization,[5],decreased
same,Cellular uptake at extracellular acidification,[5],reduced
same,Cellular uptake at extracellular alkalization,[5],increased
same,Proton-gradient dependence of uptake,[5],yes
same,Cellular uptake after intracellular acidification,[5],decreased uptake
same,IC50,[6]; [11],1460 ± 189 µM
